The text below walks through data of patent US20080090805A1, “CB-1 MODULATING COMPOUNDS AND THEIR USE” (ACADIA PHARMACEUTICALS INC., priority 2005, published 2008).

For one data set, the target named is native CB1 receptors (Rattus norvegicus, UniProt P20272). Put plainly: CB1 receptor rat binding assay ([3H]SR141716A, rat brain membranes).
A further data set addresses human CB1 receptor (Homo sapiens, UniProt P21554). Put plainly: CB1 receptor human binding assay ([3H]SR141716A, transfected HEK-293 T membranes). Particulars: human CB1, HEK-293 T membranes; for Ki: read-out: Binding Human pKi (converted).
The next data set concerns the target hERG (Homo sapiens, UniProt Q12809). The data set can be described thus: HERG safety study (whole cell recordings, CHO cells). Particulars: CHO cells stably expressing hERG channels, pH 7.4. Background: hERG is a cardiac potassium channel; its block is linked to QT prolongation.
The mark [1] stands for this setting: rat brain membranes, [3H]SR141716A.
[2] abbreviates: rat brain membranes, [3H]SR141716A, read-out: Binding rat pKi (converted).

Molecules are shown by their SMILES. Read-outs that look alike come from different tables or passages of the source.

For orientation: inhibition means the drop in the measured response relative to a control, in per cent. The low end stands for a response near the control, the high end for a response far below the control.

Sequence of hERG (Q12809 whole entry): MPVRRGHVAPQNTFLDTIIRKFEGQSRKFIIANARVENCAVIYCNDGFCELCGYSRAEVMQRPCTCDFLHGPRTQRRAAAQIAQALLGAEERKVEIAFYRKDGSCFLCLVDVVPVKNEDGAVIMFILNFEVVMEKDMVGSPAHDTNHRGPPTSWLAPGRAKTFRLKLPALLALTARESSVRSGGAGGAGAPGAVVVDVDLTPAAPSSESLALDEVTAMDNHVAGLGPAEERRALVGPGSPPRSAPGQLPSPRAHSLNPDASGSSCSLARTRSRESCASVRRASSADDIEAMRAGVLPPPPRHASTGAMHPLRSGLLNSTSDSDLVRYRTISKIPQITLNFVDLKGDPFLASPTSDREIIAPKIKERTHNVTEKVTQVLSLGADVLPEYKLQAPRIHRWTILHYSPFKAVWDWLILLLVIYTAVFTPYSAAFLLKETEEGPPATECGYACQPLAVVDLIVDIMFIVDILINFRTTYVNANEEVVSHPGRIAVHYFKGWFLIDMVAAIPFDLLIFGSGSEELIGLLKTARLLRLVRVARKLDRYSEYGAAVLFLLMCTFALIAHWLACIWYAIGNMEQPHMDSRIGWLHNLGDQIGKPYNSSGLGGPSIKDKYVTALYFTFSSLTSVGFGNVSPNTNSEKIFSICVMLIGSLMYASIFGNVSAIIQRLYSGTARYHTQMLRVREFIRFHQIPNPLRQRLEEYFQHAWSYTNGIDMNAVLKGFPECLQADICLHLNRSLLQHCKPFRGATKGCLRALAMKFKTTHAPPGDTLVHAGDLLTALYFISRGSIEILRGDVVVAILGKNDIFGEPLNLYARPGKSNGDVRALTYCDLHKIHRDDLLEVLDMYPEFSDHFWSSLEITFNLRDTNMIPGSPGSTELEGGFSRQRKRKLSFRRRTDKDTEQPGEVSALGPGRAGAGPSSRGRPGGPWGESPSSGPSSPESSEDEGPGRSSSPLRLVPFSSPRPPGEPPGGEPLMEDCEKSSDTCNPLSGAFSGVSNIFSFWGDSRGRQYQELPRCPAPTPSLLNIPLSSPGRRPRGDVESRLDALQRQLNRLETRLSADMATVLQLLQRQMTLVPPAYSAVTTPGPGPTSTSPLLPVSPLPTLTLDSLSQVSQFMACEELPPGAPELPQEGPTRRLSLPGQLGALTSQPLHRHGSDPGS
Sequence of human CB1 receptor (P21554 whole entry): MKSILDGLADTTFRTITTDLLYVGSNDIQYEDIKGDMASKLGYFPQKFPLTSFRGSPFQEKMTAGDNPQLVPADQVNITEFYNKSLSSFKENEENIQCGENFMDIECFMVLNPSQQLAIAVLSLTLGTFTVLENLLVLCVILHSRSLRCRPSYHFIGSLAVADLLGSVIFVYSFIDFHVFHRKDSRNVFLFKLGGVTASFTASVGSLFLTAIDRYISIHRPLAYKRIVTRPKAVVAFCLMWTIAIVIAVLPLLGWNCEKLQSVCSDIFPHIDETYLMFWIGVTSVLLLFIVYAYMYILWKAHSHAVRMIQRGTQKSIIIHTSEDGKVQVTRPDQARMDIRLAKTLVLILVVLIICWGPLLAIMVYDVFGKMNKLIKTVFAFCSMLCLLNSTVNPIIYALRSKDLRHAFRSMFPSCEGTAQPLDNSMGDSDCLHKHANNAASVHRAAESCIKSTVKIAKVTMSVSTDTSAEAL
Sequence of native CB1 receptors (P20272 whole entry): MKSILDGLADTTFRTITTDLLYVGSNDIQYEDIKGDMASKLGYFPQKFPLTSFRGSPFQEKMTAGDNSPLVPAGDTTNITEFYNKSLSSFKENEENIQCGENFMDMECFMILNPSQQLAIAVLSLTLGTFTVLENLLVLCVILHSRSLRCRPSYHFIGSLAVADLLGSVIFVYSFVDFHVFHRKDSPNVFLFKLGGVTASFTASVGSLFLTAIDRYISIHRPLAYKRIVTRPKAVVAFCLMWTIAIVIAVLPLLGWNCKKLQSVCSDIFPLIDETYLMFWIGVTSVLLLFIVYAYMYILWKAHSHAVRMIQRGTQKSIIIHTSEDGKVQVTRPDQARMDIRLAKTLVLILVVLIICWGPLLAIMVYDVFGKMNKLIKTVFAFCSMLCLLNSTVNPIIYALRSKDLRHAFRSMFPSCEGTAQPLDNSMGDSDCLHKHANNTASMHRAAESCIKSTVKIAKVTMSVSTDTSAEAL

Consider `O=C(NC1CCCCC1)c1ccc2c(c1)N=C(c1cccc(Cl)c1)c1ccccc1S2` [drawing 1194], for which the “Binding rat Inh %” value at native CB1 receptors (setting [1]) was 80%. In addition, the Ki at native CB1 receptors (setting [2]) is 1.26 nM. At human CB1 receptor, the “Binding Human Inh %” value was 107% and the Ki was 0.631 nM.
The like results for `CC(C)CNC(=O)c1ccc2c(c1)N=C(c1ccc(Cl)cc1F)c1ccccc1S2` [drawing 1199] were, in that order, 94%, 5.01 nM, 77% and 0.631 nM.
The like results for `CC(C)CNC(=O)c1ccc2c(c1)N=C(c1ccc(Cl)s1)c1ccc(Cl)cc1S2` [drawing 1200] were, in that order, 100%, 5.01 nM, 92% and 0.631 nM.
For `O=C(NC1CCCCC1)c1ccc2c(c1)N=C(c1ccc(F)cc1)c1ccccc1S2` [drawing 1202], in that order: 84%, 3.16 nM, 87% and 1.26 nM.
Regarding `O=C(NN1CCCCC1)c1ccc2c(c1)N=C(c1ccc(F)cc1)c1ccccc1S2` [drawing 1207], the “Binding rat Inh %” value on native CB1 receptors (setting [1]) turned out to be 103%. In addition, the Ki on native CB1 receptors (setting [2]) was 10 nM. At human CB1 receptor, the “Binding Human Inh %” value was 87% and the Ki was 1.26 nM.
For `O=C(NN1CCCCCC1)c1ccc2c(c1)N=C(c1ccc(Cl)s1)c1ccccc1S2` [drawing 1208], in that order: 93%, 5.01 nM, 96% and 1.58 nM.
The like results for `O=C(NN1CCCCCC1)c1ccc2c(c1)N=C(c1cccc(Cl)c1)c1ccccc1S2` [drawing 1209] were, in that order, 87%, 2 nM, 94% and 1.58 nM.
On to `CCCNC(=O)c1ccc2c(c1)N=C(c1ccc(Cl)cc1)c1ccccc1S2` [drawing 1210], for which the “Binding rat Inh %” value at native CB1 receptors (setting [1]) is recorded as 95%. The Ki on native CB1 receptors (setting [2]) is 6.31 nM. Moreover, at human CB1 receptor, the “Binding Human Inh %” value stood at 74% and the Ki was 2 nM.
The like results for `O=C(NN1CCCCCC1)c1ccc2c(c1)N=C(c1cccc(F)c1)c1ccccc1S2` [drawing 1215] were, in that order, 97%, 6.31 nM, 103% and 2 nM.
`O=C(NN1CCCCC1)c1ccc2c(c1)N=C(C1CCCCC1)c1ccccc1S2` [drawing 1216] gave a Ki at native CB1 receptors of 5.01 nM. At native CB1 receptors (setting [1]), the “Binding rat Inh %” value is recorded as 94%. In addition, at human CB1 receptor, the “Binding Human Inh %” value stood at 65% and the Ki was 2 nM.
Turning to `CC(C)CNC(=O)c1ccc2c(c1)N=C(c1ccccn1)c1ccccc1S2` [drawing 1217], at native CB1 receptors (setting [1]), the “Binding rat Inh %” value is 79%. The Ki at native CB1 receptors (setting [2]) is 158 nM; at human CB1 receptor, 6.31 nM. Also, the “Binding Human Inh %” value at human CB1 receptor worked out at 89%.
On to `COCCNC(=O)c1ccc2c(c1)N=C(c1ccc(Cl)s1)c1ccccc1S2` [drawing 1218], for which, on native CB1 receptors (setting [1]), the “Binding rat Inh %” value turned out to be 80%. Also, the Ki on native CB1 receptors (setting [2]) was 50.1 nM. Moreover, at human CB1 receptor, the “Binding Human Inh %” value was 94% and the Ki is 20 nM.
Molecule `O=C(NCCCC(F)(F)F)c1ccc2c(c1)N=C(c1ccc(Cl)cc1F)c1ccccc1S2` [drawing 1809] returned an inhibition at 1 µM on hERG of 24%.
For `O=C(NCCCC(F)(F)F)c1ccc2c(c1)N=C(c1ccc(Cl)s1)c1ccccc1S2` [drawing 1810], the inhibition at 1 µM on hERG turned out to be 14%.
Same read-out and setting: for `CC(C)CNC(=O)c1ccc2c(c1)N=C(c1ccc(Cl)cc1)c1ccc(F)cc1S2` [drawing 1811] the value was 58%.
Still for that read-out and setting: for `CCCCNC(=O)c1ccc2c(c1)N=C(c1ccc(Cl)cc1)c1ccccc1S2` [drawing 1812] the value was 49%.
In the case of `CC(C)CNC(=O)c1ccc2c(c1)N=C(c1ccc(Cl)s1)c1ccccc1S2` [drawing 1813], the inhibition at 1 µM against hERG is 26%.
The same measure, in the same setting: as for `O=C(NC1CCCCC1)c1ccc2c(c1)N=C(c1ccc(F)cc1)c1ccccc1S2` [drawing 1814], the figure is 45%.
